“Also recorded” adds a separate entry of the source.
Key:
[1] = biological target: T1, PRMT1 (Homo sapiens, UniProt Q99873); test: radioactive PRMT1 methylation inhibition assay ([3H]-SAM, biotinylated histone H4 peptide); format: biochemical
Method: A series of 1,5-substituded tetrazole derivatives were synthesized to investigate the structure-activity relationship (SAR) of PRMT1 inhibitors (Table 1). […] The chemical modification of these compounds is mainly focused on the substituted benzene ring. The initial screening of these compounds was carried out using the radioactive PRMT1 methylation inhibition assay, which measured the amount of methyl groups that transferred from [^3H]-SAM to a biotinylated histone H4 peptide (ac- […](Biotin)). […] In the second step, the Group II compounds were designed and synthesized by extending the ethylenediamine side chain to propylenediamine.
(§1) The enzyme inhibitory activities were measured by the radioisotope assay in ShangHai Chempartner Co. Ltd. according to the standard protocol. The similar procedure was recently performed in the publication The radioactive methylation assay was performed in 1× assay buffer (modified Tris buffer) system containing enzyme (PRMT1/5), peptide and [^3H]-SAM solution and compounds on the assay plate. […] Afterwards, the reaction was stopped with addition of 5 μL cold SAM solution to per well. Then, 25 μL of volume per well was transferred to Flashplate from assay plate and incubated for 1 h minimum at room temperature. Finally, the Flashplate was washed with dH2O and 0.1% Tween-20 three times and then reading plate in Mi crobeta using program ^3H-Flashplate. The data was analyzed in GraphPad Prism 5 to obtain IC50 values.

[2] = biological target: PRMT5 (Homo sapiens, UniProt O14744); test: radioactive methylation assay, PRMT5 selectivity; format: biochemical
Sequence of PRMT5 (O14744 whole entry, species assumed): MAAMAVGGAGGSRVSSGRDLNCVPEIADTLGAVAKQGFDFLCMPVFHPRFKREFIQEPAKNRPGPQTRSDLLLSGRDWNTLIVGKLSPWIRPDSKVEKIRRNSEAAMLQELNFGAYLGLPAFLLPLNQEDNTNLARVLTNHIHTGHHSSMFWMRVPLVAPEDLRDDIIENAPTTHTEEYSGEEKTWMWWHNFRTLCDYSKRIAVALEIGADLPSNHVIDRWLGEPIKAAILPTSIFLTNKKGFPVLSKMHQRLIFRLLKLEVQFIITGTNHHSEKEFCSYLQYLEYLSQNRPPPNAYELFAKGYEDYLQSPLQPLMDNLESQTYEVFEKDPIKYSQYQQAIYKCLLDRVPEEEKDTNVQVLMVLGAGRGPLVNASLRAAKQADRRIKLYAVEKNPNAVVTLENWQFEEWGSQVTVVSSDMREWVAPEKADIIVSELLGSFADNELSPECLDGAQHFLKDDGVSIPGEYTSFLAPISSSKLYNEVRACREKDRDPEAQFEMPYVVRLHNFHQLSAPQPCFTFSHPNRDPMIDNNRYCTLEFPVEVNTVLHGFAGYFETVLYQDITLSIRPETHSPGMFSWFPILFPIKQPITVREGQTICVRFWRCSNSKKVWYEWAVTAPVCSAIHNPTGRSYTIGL
Sequence of PRMT5 (Q9BQA1 whole entry partner, species assumed): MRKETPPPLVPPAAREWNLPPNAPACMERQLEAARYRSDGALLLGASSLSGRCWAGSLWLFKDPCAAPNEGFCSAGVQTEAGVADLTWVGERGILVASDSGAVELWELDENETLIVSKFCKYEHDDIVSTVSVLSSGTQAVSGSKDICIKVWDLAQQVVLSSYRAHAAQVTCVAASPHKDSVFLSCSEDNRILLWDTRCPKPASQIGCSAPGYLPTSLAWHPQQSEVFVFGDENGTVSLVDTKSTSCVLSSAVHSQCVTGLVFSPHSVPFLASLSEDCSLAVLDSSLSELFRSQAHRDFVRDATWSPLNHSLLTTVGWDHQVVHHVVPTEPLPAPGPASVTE
Method: as §1

[3] = biological target: T1, PRMT1; test: Mechanism of Action (MOA) study, competition with SAM and peptide on PRMT1; format: biochemical; conditions: IC50 at varied SAM (0.5-60× Km) or peptide (0.5-100× Km) concentrations
Description: Both PRMT1 and PRMT6 are Type I PRMTs, and their structures share the high degree similarity. […] Based on the crystal structure, it can be predicated that MS023 should be a competitive inhibitor against the peptide. […] There are potential explanations for the current contradictory results. First, the main binding effects of the substrate were from the outside regions of arginine-binding site.
The method is consistent with the procedure described above.

[4] = WST-8/CCK8 cell viability assay; format: cell-based; conditions: human, MDA-MB-231 breast cancer cells, read-out: IC50 against MDA-MB-231 (cytotoxicity)
Method: The MDA-MB-231 cell line used in this study was obtained from the American Type Culture Collection (ATCC, Rockville, MD, USA), and was grown in dulbecco’s modified eagle medium (DMEM, Gibco, Thermo Fisher Scientific, Waltham, MA, USA) supplemented with 10% fetal bovine serum (FBS) (Gibco). The cells were incubated at 37 °C and 5% CO2.
The cytotoxicity was determined by the CCK8 assay. Briefly, MDA-MB-231 cells (5 × 10^3 cells/well) were seeded in 96-well plates in DMEM containing 10% FBS and grew for 24 h. The exponentially growing cells were incubated with various concentrations of compounds for 48h/72h in serum free DMEM at 37 °C (5% CO2, 95% humidity). CCK8 reagent (10 μL) was added to each well and incubated for further 2 h, and then the absorbance was analyzed in a multiwell-plate reader (BioTek ELx800) at 450 nm.

[5] = tested on: MDA-MB-231 cells; test: Western blotting of PRMT1 and Wnt pathway markers; format: cell-based
Method: MDA-MB-231 cells were maintained on 6-well plates at the appropriate density. […] Total cell lysates were separated by SDS-PAGE and transferred onto nitrocellulose membranes. The blots were blocked with 5% nonfat milk for 30 min and the target proteins were probed with appropriate specific antibody overnight at 4 °C, respectively. The blots were washed with TBST for three times and then incubated with anti-rabbit secondary antibody (HRP conjugated) for 1 h. After another three washes, bands were detected in a ChemiScope3400 imaging system using ECL substrate (Millipore, Burlington, MS, USA). Primary antibodies used were as follows: anti-PRMT1 (Cell Signaling Technology no.2449, Danvers, MA, USA), anti-ADMA (Cell Signaling Technology no.13522), anti-SDMA (Cell Signaling Technology no.13222), anti-GAPDH (Cell Signaling Technology no. 5174), anti-H4R3me2a Abcam, ab9231), Wnt3a (Cell Signaling Technology no. 2721s), anti-DDAH (Abcam, ab9231, Cambridge, UK), Wnt5a/b (Cell Signaling Technology no. 2530s), β-catenin (Cell Signaling Technology no. 8480s), MMP9 (Cell Signaling Technology no.1366s). The results were obtained from multiple membranes. No significant differences were observed among loading controls. Therefore, we presented the representative loading control blot image in the figure.

[6] = tested on: PRMT6; design: method as in PMID 26598975; conditions: cited from earlier work
[7] = MDA-MB-231, 48 h, top concentration 200 μM

T1 sequence (Q99873 whole entry): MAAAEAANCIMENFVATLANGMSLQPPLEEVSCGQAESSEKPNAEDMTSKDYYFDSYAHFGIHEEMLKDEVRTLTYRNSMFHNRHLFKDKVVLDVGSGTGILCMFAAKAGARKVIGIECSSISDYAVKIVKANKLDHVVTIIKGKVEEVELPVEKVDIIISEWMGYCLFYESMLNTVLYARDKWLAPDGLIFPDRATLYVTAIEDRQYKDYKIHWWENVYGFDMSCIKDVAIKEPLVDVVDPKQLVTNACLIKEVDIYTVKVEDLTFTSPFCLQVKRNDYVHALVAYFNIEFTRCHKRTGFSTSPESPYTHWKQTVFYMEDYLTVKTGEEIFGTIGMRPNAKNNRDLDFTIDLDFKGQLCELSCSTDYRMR

IC50 [1] [µM]	inhibition at 10 µM ([1]; 10 μM compound, initial screening) [%]	IC50 [2] [µM]	SMILES	mode of inhibition with respect to SAM and peptide substrate [3]	IC50 at 48 h ([4]; 48 h) [µM]	IC50 at 72 h ([4]; 72 h) [µM]	global level of ADMA [5, 7]	global level of H4R3me2as [5, 7]	global level of SDMA [5, 7]	level of DDAH [5, 7]	level of Wnt3a [5, 7]	level of Wnt5a [5, 7]	level of β-catenin [5, 7]	cell damage during the western blotting experiment ([5]; MDA-MB-231, top concentration 200 μM)	mode of inhibition with respect to SAM and peptide substrate [6]
3.5	> 47	> 100	CNCCN(C)Cc1nnnn1-c1ccc(OC(C)C)cc1.Cl [9a, N,N’-Dimethyl-N’-(1-(4-isopropoxyphenyl)-1H-tetrazol-5-yl-methyl)ethylenediamine hydrochloride]	noncompetitive inhibitor for either the cofactor SAM or peptide substrate; also recorded: non-competitive pattern with respect to either SAM or substrate arginine; also recorded: did not compete with either SAM or peptides	> 500	541 ± 6.5	significantly decreased in a concentration-dependent manner; also recorded: significantly decreased in concentration-dependent manners	decreased the global level of H4R3me2as in a concentration-dependent manner; also recorded: significantly decreased in concentration-dependent manners	not significantly affected; also recorded: not significantly changed	significantly decreased in a concentration-dependent manner; also recorded: significantly decreased in concentration-dependent manners	significantly decreased in concentration-dependent manners	did not change significantly; also recorded: not changed	significantly decreased in concentration-dependent manners	no obvious cell damage was observed	
			CC(C)Oc1ccc(-c2c[nH]cc2CN(C)CCN)cc1 [MS023]												noncompetitive with either SAM or peptide substrate

— PMC6695598, “The Development of Tetrazole Derivatives as Protein Arginine Methyltransferase I (PRMT I) Inhibitors” (International Journal of Molecular Sciences, 2019)
